In patent publication US4983328A, “N-(4-(3-aminopropyl)aminobutyl)-2-(ω-gua nidino-fatty-acid-amido(-2-substituted-ethanamide, salt thereof, and process for preparation thereof” (Bristol-Myers Company, priority 1981, dated 1991):
Converted amounts (≈) assume the structure as drawn.

Assays:
[1] = tested on: mouse leukemia L-1210 cells; test: growth inhibitory activity to cancer cells in vitro (L-1210, 48 hours); format: cell-based; conditions: for inhibition at 2.5 µg/mL: L1210, 2.5 mcg/ml; for inhibition at 2.5 µg/mL / inhibition at 5 µg/mL / inhibition at 10 µg/mL / inhibition at 20 µg/mL / inhibition at 40 µg/mL / inhibition at 80 µg/mL / inhibition at 160 µg/mL / inhibition at 1.25 µg/mL: read-out: Growth inhibition (%), (1-T/C) × 100; for inhibition at 5 µg/mL: L1210, 5 mcg/ml; for inhibition at 10 µg/mL: L1210, 10 mcg/ml; for inhibition at 20 µg/mL: L1210, 20 mcg/ml; for IC50: L1210, L-1210 cells, read-out: 50% inhibitory concentration; for inhibition at 40 µg/mL: L1210, 40 mcg/ml; for inhibition at 80 µg/mL: L1210, 80 mcg/ml; for inhibition at 160 µg/mL: L1210, 160 mcg/ml; for inhibition at 1.25 µg/mL: L1210, 1.25 mcg/ml
Description: DBA/2 mice were implanted with 10^5 mouse leukemia L-1210 cells. The ascites collected asceptically from the mice after 4 days of feeding was washed three times with physiological saline to obtain L-1210 cells, which was then suspended in RPMI 1640 culture medium [G. E. Moore, Journal of the American Medical Association, Vol. 199, 519 (1967); H. J. Morton, In Vitro, Vol. 6, 89 (1970)] to which 10% fetal calf serum and 5 μM 2-mercaptoethanol had been added, and the resulting suspension was diluted to 5×10^4 L-1210 cells per 0.9 ml. A microplate carrying 0.9 ml of the cell suspension and 0.1 ml of the culture medium containing the sample being tested was kept in a carbon dioxide incubator at 37° C. After 48 hours of cultivation, the number of cells was measured by means of a Coulter Counter (Coulter Electronics, Inc., U.S.A.) to obtain the growth inhibition (%)=(1--T/C )×100=[1-(number of grown cells in medium containing sample/(number of grown cells in control medium)]×100. The 50% growth inhibitory concentration was calculated from the values of growth inhibition at varied sample concentrations. The results of tests on typical compounds of this invention for the growth inhibition of L-1210 cells were as shown in Table 6.

mouse leukemia L-1210 = test: therapeutic effect on implanted cancer in mice (L-1210, survival over 30 days); format: in vivo, mouse (BDF1); conditions: L1210, ip, 720 h, 6 days; for responders at 0.78 mg/kg / response vs control in vivo at 0.78 mg/kg: 0.78 mg/kg/day i.p.; for responders at 0.78 mg/kg / responders at 1.56 mg/kg / responders at 3.13 mg/kg / responders at 6.25 mg/kg / responders at 12.5 mg/kg / responders at 25 mg/kg / responders at 50 mg/kg / responders at 0.2 mg/kg / responders at 0.39 mg/kg: read-out: Number of mice survived for 30 days (converted); for response vs control in vivo at 0.78 mg/kg / response vs control in vivo at 1.56 mg/kg / response vs control in vivo at 3.13 mg/kg / response vs control in vivo at 6.25 mg/kg / response vs control in vivo at 12.5 mg/kg / response vs control in vivo at 25 mg/kg / response vs control in vivo at 50 mg/kg / response vs control in vivo at 0.2 mg/kg / response vs control in vivo at 0.39 mg/kg: read-out: Prolongation of survival period (%), T/C × 100; for responders at 1.56 mg/kg / response vs control in vivo at 1.56 mg/kg: 1.56 mg/kg/day i.p.; for responders at 3.13 mg/kg / response vs control in vivo at 3.13 mg/kg: 3.13 mg/kg/day i.p.; for responders at 6.25 mg/kg / response vs control in vivo at 6.25 mg/kg: 6.25 mg/kg/day i.p.; for responders at 12.5 mg/kg / response vs control in vivo at 12.5 mg/kg: 12.5 mg/kg/day i.p.; for responders at 25 mg/kg / response vs control in vivo at 25 mg/kg: 25 mg/kg/day i.p.; for responders at 50 mg/kg / response vs control in vivo at 50 mg/kg: 50 mg/kg/day i.p.; for responders at 0.2 mg/kg / response vs control in vivo at 0.2 mg/kg: 0.20 mg/kg/day i.p.; for responders at 0.39 mg/kg / response vs control in vivo at 0.39 mg/kg: 0.39 mg/kg/day i.p.
Text: BDF1 strain male mice (5 weeks old) were each inoculated intraperitoneally with 10^5 mouse leukemia L-1210 cells and treated once a day by intraperitoneal injection with a test compound dissolved in physiological saline for 6 consecutive days beginning from the day of inoculation. The mice were then observed for 30 days to determine the rate of prolongation of survival period=100×T/C=100×(average survival days of treated group)/(average survival days of control group).

[2] = acute toxicity in mice (single intraperitoneal administration); conditions: mouse, in vivo, ip; mice, single i.p.; read-out: LD50 (median lethal dose on single administration)
Description: (§1) In Table 8 median lethal doses (LD50) of typical compounds of this invention are shown, measured in mice upon single intraperitoneal administration, as well as maximum tolerated doses in terms of total dose when a fixed amount per unit body weight was administered intraperitoneally to mice once a day for 6 consecutive days.
*Median lethal dose on single administration.

[3] = cumulative toxicity in mice (maximum tolerated dose, once a day for 6 consecutive days); conditions: mouse, in vivo, ip, i.p. once a day for 6 consecutive days, total dose, read-out: Maximum Tolerated Dose (total dose not causing death)
Description: as §1
**Maximum value of the total dose not causing death when a fixed amount
per unit body weight is administered to mice once a day for 6 consecutive

Row | Structure (SMILES) | inhibition at 2.5 µg/mL [1] | inhibition at 5 µg/mL [1] | inhibition at 10 µg/mL [1] | inhibition at 20 µg/mL [1] | IC50 [1] | responders at 0.78 mg/kg (mouse leukemia L-1210) | responders at 1.56 mg/kg (mouse leukemia L-1210) | response vs control in vivo at 1.56 mg/kg (mouse leukemia L-1210) | responders at 3.13 mg/kg (mouse leukemia L-1210) | response vs control in vivo at 3.13 mg/kg (mouse leukemia L-1210) | responders at 6.25 mg/kg (mouse leukemia L-1210) | response vs control in vivo at 6.25 mg/kg (mouse leukemia L-1210) | responders at 12.5 mg/kg (mouse leukemia L-1210) | response vs control in vivo at 12.5 mg/kg (mouse leukemia L-1210) | responders at 25 mg/kg (mouse leukemia L-1210) | response vs control in vivo at 25 mg/kg (mouse leukemia L-1210) | LD50 [2] | MTD [3] | inhibition at 40 µg/mL [1] | inhibition at 80 µg/mL [1] | further results
1 | N=C(N)NCCCCC=CC(=O)NC(O)C(=O)NCCCCNCCCN (stereo not shown) [Compound 16, N-[4-(3-aminopropyl)aminobutyl]-2-(7-guanidino-2-heptenamido)-2-hydroxyethanamide] | 22.6% | 31.1% | 32.5% | 56.3% | 17 µg/mL (≈ 44.1 µM) | 0% | 0% | 233% | 50% | > 343% | 50% | > 350% | 50% | > 354% | 0% | 236% | 25 to 50 mg/kg | > 150 mg/kg | – | – | response vs control in vivo at 0.78 mg/kg (mouse leukemia L-1210): 129%; responders at 50 mg/kg (mouse leukemia L-1210): 0%; response vs control in vivo at 50 mg/kg (mouse leukemia L-1210): 0%
2 | N=C(N)NCCCCCCCC(=O)NC(O)C(=O)NCCCCNCCCN (stereo not shown) [Compound 5, N-[4-(3-aminopropyl)aminobutyl]-2-(8-guanidinooctanamido)-2-hydroxyethanamide] | 24.9% | 29.1% | 40% | 54.2% | 18 µg/mL (≈ 44.8 µM) | – | 0% | 104% | 0% | 118% | 0% | 125% | 0% | 181% | 0% | 306% | 25 to 50 mg/kg | > 150 mg/kg | 66% | 88.5% | inhibition at 160 µg/mL [1]: 96.8%; responders at 50 mg/kg (mouse leukemia L-1210): 0%; response vs control in vivo at 50 mg/kg (mouse leukemia L-1210): 0%
3 | COC(NC(=O)C=CCCCCNC(=N)N)C(=O)NCCCCNCCCN (stereo not shown) [Compound 19, N-[4-(3-aminopropyl)aminobutyl]-2-(7-guanidino-2-heptenamido)-2-methoxyethanamide] | 32.2% | 46.4% | 56.4% | 75.6% | 6.3 µg/mL (≈ 15.8 µM) | 0% | 50% | > 350% | 50% | > 321% | 75% | > 429% | 50% | > 364% | 0% | 0% | 12.5 to 25 mg/kg | > 75 mg/kg | 85.4% | 93.1% | inhibition at 1.25 µg/mL [1]: 29.9%; responders at 0.2 mg/kg (mouse leukemia L-1210): 0%; response vs control in vivo at 0.2 mg/kg (mouse leukemia L-1210): 100%; responders at 0.39 mg/kg (mouse leukemia L-1210): 0%; response vs control in vivo at 0.39 mg/kg (mouse leukemia L-1210): 107%; response vs control in vivo at 0.78 mg/kg (mouse leukemia L-1210): 164%
4 | N=C(N)NCCCCCCC(=O)NC(O)C(=O)NCCCCNCCCN (stereo not shown) [Compound 4, N-[4-(3-aminopropyl)aminobutyl]-2-(7-guanidinoheptanamido)-2-hydroxyethanamide] | 27.5% | 29.9% | 58.4% | 75.5% | 8.1 µg/mL (≈ 20.9 µM) | 100% | 100% | > 429% | 50% | > 364% | 25% | > 369% | 50% | > 357% | 0% | 336% | 25 to 50 mg/kg | > 150 mg/kg | 78.7% | – | inhibition at 1.25 µg/mL [1]: 20%; responders at 0.2 mg/kg (mouse leukemia L-1210): 0%; response vs control in vivo at 0.2 mg/kg (mouse leukemia L-1210): 197%; responders at 0.39 mg/kg (mouse leukemia L-1210): 75%; response vs control in vivo at 0.39 mg/kg (mouse leukemia L-1210): > 390%; response vs control in vivo at 0.78 mg/kg (mouse leukemia L-1210): > 429%; responders at 50 mg/kg (mouse leukemia L-1210): 0%; response vs control in vivo at 50 mg/kg (mouse leukemia L-1210): 0%
5 | COC(NC(=O)CCCCCNC(=N)N)C(=O)NCCCCNCCCN (stereo not shown) [Compound 8, N-[4-(3-aminopropyl)aminobutyl]-2-(6-guanidinohexanamido)-2-methoxyethanamide] | – | 33.2% | 38.1% | 46.8% | 28 µg/mL (≈ 72.3 µM) | – | – | – | – | – | – | – | – | – | – | – | 25 to 50 mg/kg | > 150 mg/kg | 53.5% | 66.3% | inhibition at 160 µg/mL [1]: 88.2%
6 | CCOC(NC(=O)C[C@@H](O)CCCCNC(=N)N)C(=O)NCCCCNCCCN (stereo partly shown) [Compound 23, N-[4-(3-aminopropyl)aminobutyl]-2-(7-guanidino-3-hydroxyheptanamido)-2-ethoxyethanamide] | 58.5% | 85.5% | 93% | 96.1% | 2.2 µg/mL (≈ 5.1 µM) | – | – | – | 0% | 104% | 0% | 119% | 0% | 129% | 0% | 200% | > 25 mg/kg | > 150 mg/kg | 96.4% | – | –
7 | CCOC(NC(=O)CCCCCCNC(=N)N)C(=O)NCCCCNCCCN (stereo not shown) [Compound 12, N-[4-(3-aminopropyl)aminobutyl]-2-(7-guanidinoheptanamido)-2-ethoxyethanamide] | 21.5% | 31.1% | 38.4% | 47.3% | 21 µg/mL (≈ 50.5 µM) | – | – | – | – | – | – | – | – | – | – | – | 12.5 to 25 mg/kg | > 75 mg/kg | 58.6% | 73.5% | –
8 | N=C(N)NCCCCCC=CC(=O)NC(O)C(=O)NCCCCNCCCN (stereo not shown) [Compound 17, N-[4-(3-aminopropyl)aminobutyl]-2-(8-guanidino-2-octenamido)-2-hydroxyethanamide] | 4.5% | 13.3% | 16.5% | 33.7% | 70 µg/mL (≈ 175 µM) | – | – | – | – | – | – | – | – | – | – | – | 12.5 to 25 mg/kg | > 75 mg/kg | 52.5% | – | inhibition at 1.25 µg/mL [1]: 2.1%
